Among the data in patent US8940754B2, “10′-fluorinated Vinca alkaloids provide enhanced biological activity against MDR cancer cells” (priority 2010, dated 2015) are IC50 values, retold here.

Read-outs that look alike come from different tables or passages of the source.

What all share (assay): cells
The test system of one test is L1210. The format is cell-based, mouse.
The next test relates to HCT116. It counts as cell-based, human.
A further test deals with HCT116/VM46. The format is cell-based, human.
[1] abbreviates: Mus musculus, L1210; Table 2B, C10′-substituted vinblastines, single evaluations; read-out: IC50 (nM) L1210.
Where [2] appears, read: Homo sapiens, HCT-116; Table 2B, C10′-substituted vinblastines, single evaluations; read-out: IC50 (nM) HCT116.
[3] abbreviates: Homo sapiens, HCT-116/VM46; Table 2B, C10′-substituted vinblastines, single evaluations; read-out: IC50 (nM) HCT116/VM46.
Setting [4] is: Mus musculus, L1210; read-out: IC50 (nM) L1210.
Setting [5] is: Homo sapiens, HCT-116; read-out: IC50 (nM) HCT116.
Setting [6] is: Homo sapiens, HCT-116/VM46; read-out: IC50 (nM) HCT116/VM46.
[7] abbreviates: Table 2C, side-by-side, multiple examinations with several independent samples; read-out: IC50 (nM) L1210.
Setting [8] is: Table 2C, side-by-side, multiple examinations with several independent samples; read-out: IC50 (nM) HCT116/VM46.
The mark [9] stands for this setting: Mus musculus, L1210; Table 2A, C10′-substituted anhydrovinblastines, single evaluations; read-out: IC50 (nM) L1210.
The mark [10] stands for this setting: Homo sapiens, HCT-116; Table 2A, C10′-substituted anhydrovinblastines, single evaluations; read-out: IC50 (nM) HCT116.
The mark [11] stands for this setting: Homo sapiens, HCT-116/VM46; Table 2A, C10′-substituted anhydrovinblastines, single evaluations; read-out: IC50 (nM) HCT116/VM46.
[12] abbreviates: Mus musculus, L1210; Table 1A, C16′-modified anhydrovinblastine analogues; read-out: IC50 (nM) L1210.
The mark [13] stands for this setting: Homo sapiens, HCT-116; Table 1A, C16′-modified anhydrovinblastine analogues; read-out: IC50 (nM) HCT116.
Where [14] appears, read: Homo sapiens, HCT-116/VM46; Table 1A, C16′-modified anhydrovinblastine analogues; read-out: IC50 (nM) HCT116/VM46.

For `CC[C@]1(O)C[C@@H]2CN(CCc3c([nH]c4ccc(I)cc34)[C@@](C(=O)OC)(c3cc4c(cc3OC)N(C)C3C(O)(C(=O)OC)[C@H](OC(C)=O)[C@]5(CC)C=CCN6CC[C@]43[C@@H]65)C2)C1` (stereo partly drawn) [Compound 16b, 10′-iodovinblastine], the IC50 came out at 55 nM in the test with L1210 (setting [1]), 60 nM with HCT116 (setting [2]) and 840 nM in the test with HCT116/VM46 (setting [3]).
Turning to `CC[C@]1(O)C[C@@H]2CN(CCc3c([nH]c4ccccc34)[C@@](CO)(c3cc4c(cc3OC)N(C)C3C(O)(C(=O)OC)[C@H](OC(C)=O)[C@]5(CC)C=CCN6CC[C@]43[C@@H]65)C2)C1` (stereo partly drawn) [Compound 11b], the results for the IC50 in the test with L1210 (setting [4]), with HCT116 (setting [5]) and in the test with HCT116/VM46 (setting [6]) were 6500 nM, 5800 nM and more than 10000 nM, respectively.
As to `CC[C@]1(O)C[C@@H]2CN(CCc3c([nH]c4ccccc34)[C@@](C(=O)OC)(c3cc4c(cc3OC)N(C)[C@H]3[C@@](O)(C(=O)OC)[C@H](OC(C)=O)[C@]5(CC)C=CCN6CC[C@]43[C@@H]65)C2)C1` [Compound 1, Vinblastine, reference compound], the IC50 in the test with L1210 (Table 1B, C16′-modified vinblastine analogues; read-out: IC50 (nM) L1210) worked out at 6 nM; in the test with L1210 (Table 2B, C10′-substituted vinblastines, single evaluations; read-out: IC50 (nM) L1210), 6 nM; in the test with L1210 (setting [7]), 6 nM; in the test with HCT116/VM46 (Table 1B, C16′-modified vinblastine analogues; read-out: IC50 (nM) HCT116/VM46), 600 nM; with HCT116/VM46 (Table 2B, C10′-substituted vinblastines, single evaluations; read-out: IC50 (nM) HCT116/VM46), 600 nM; with HCT116/VM46 (setting [8]), 600 nM.
`CC[C@]1(O)C[C@@H]2CN(CCc3c([nH]c4ccccc34)[C@@](C#N)(c3cc4c(cc3OC)N(C)C3C(O)(C(=O)OC)[C@H](OC(C)=O)[C@]5(CC)C=CCN6CC[C@]43[C@@H]65)C2)C1` (stereo partly drawn) [Compound 6b]: the IC50 stood at 630 nM in the test on L1210 (setting [4]), 670 nM in the test with HCT116 (setting [5]) and 7400 nM with HCT116/VM46 (setting [6]).
With `CCC1=C[C@@H]2CN(CCc3c([nH]c4ccc(C#N)cc34)[C@@](C(=O)OC)(c3cc4c(cc3OC)N(C)C3C(O)(C(=O)OC)[C@H](OC(C)=O)[C@]5(CC)C=CCN6CC[C@]43[C@@H]65)C2)C1` (stereo partly drawn) [Compound 15a, 10′-cyanoanhydrovinblastine], the IC50 in the test on L1210 (Mus musculus, L1210, read-out: IC50 (nM) L1210) was 65 nM; in the test with HCT116 (Homo sapiens, HCT-116, read-out: IC50 (nM) HCT116), 70 nM; with HCT116/VM46 (Homo sapiens, HCT-116/VM46, read-out: IC50 (nM) HCT116/VM46), 920 nM.
Turning to `CC[C@]1(O)C[C@@H]2CN(CCc3c([nH]c4ccc(C)cc34)[C@@](C(=O)OC)(c3cc4c(cc3OC)N(C)C3C(O)(C(=O)OC)[C@H](OC(C)=O)[C@]5(CC)C=CCN6CC[C@]43[C@@H]65)C2)C1` (stereo partly drawn) [Compound 21b, 10′-methylvinblastine], the values for the IC50 with L1210 (setting [1]), with HCT116 (setting [2]) and in the test on HCT116/VM46 (setting [3]) were 7.8 nM, 7.8 nM and 600 nM, respectively.
`CCC1=C[C@@H]2CN(CCc3c([nH]c4ccc(OC)cc34)[C@@](C(=O)OC)(c3cc4c(cc3OC)N(C)C3C(O)(C(=O)OC)[C@H](OC(C)=O)[C@]5(CC)C=CCN6CC[C@]43[C@@H]65)C2)C1` (stereo partly drawn) [Compound 22a, 10′-methoxyanhydrovinblastine]: the IC50 with L1210 (setting [9]) was 550 nM; in the test on HCT116 (setting [10]) it was 640 nM; in the test with HCT116/VM46 (setting [11]) it was 5500 nM.
`CCC1=C[C@@H]2CN(CCc3c([nH]c4ccccc34)[C@@](C=O)(c3cc4c(cc3OC)N(C)C3C(O)(C(=O)OC)[C@H](OC(C)=O)[C@]5(CC)C=CCN6CC[C@]43[C@@H]65)C2)C1` (stereo partly drawn) [Compound 8a]: the IC50 with L1210 (setting [12]) was 6300 nM; in the test with HCT116 (setting [13]), 7000 nM; in the test with HCT116/VM46 (setting [14]) it was more than 10000 nM.
Turning to `CCC1=C[C@@H]2CN(CCc3c([nH]c4ccc(SC)cc34)[C@@](C(=O)OC)(c3cc4c(cc3OC)N(C)C3C(O)(C(=O)OC)[C@H](OC(C)=O)[C@]5(CC)C=CCN6CC[C@]43[C@@H]65)C2)C1` (stereo partly drawn) [Compound 20a, 10′-thiomethylanhydrovinblastine], the IC50 was 60 nM with L1210 (setting [9]), 85 nM in the test with HCT116 (setting [10]) and 770 nM in the test on HCT116/VM46 (setting [11]).
For the compound `CCOC(=O)[C@]1(c2cc3c(cc2OC)N(C)C2C(O)(C(=O)OC)[C@H](OC(C)=O)[C@]4(CC)C=CCN5CC[C@]32[C@@H]54)C[C@@H]2C=C(CC)CN(CCc3c1[nH]c1ccccc31)C2` (stereo partly drawn) [Compound 5a], the IC50 in the test on L1210 (setting [12]) was 620 nM; in the test on HCT116 (setting [13]), 640 nM; with HCT116/VM46 (setting [14]) it was 4100 nM.
Take `CCC1=C[C@@H]2CN(CCc3c([nH]c4ccc(Cl)cc34)[C@@](C(=O)OC)(c3cc4c(cc3OC)N(C)C3C(O)(C(=O)OC)[C@H](OC(C)=O)[C@]5(CC)C=CCN6CC[C@]43[C@@H]65)C2)C1` (stereo partly drawn) [Compound 18a, 10′-chloroanhydrovinblastine]: the IC50 is 60 nM with L1210 (setting [9]), 70 nM in the test with HCT116 (setting [10]) and 800 nM with HCT116/VM46 (setting [11]).
In the same order, the values of `CCC1=C[C@@H]2CN(CCc3c([nH]c4ccc(I)cc34)[C@@](C(=O)OC)(c3cc4c(cc3OC)N(C)C3C(O)(C(=O)OC)[C@H](OC(C)=O)[C@]5(CC)C=CCN6CC[C@]43[C@@H]65)C2)C1` (stereo partly drawn) [Compound 16a, 10′-iodoanhydrovinblastine] are 620 nM, 600 nM and 1800 nM.
As for `CC[C@]1(O)C[C@@H]2CN(CCc3c([nH]c4ccc(OC)cc34)[C@@](C(=O)OC)(c3cc4c(cc3OC)N(C)C3C(O)(C(=O)OC)[C@H](OC(C)=O)[C@]5(CC)C=CCN6CC[C@]43[C@@H]65)C2)C1` (stereo partly drawn) [Compound 22b, 10′-methoxyvinblastine], the IC50 is 670 nM in the test with L1210 (setting [1]), 720 nM with HCT116 (setting [2]) and more than 10000 nM in the test with HCT116/VM46 (setting [3]).
Take `CC[C@]1(O)C[C@@H]2CN(CCc3c([nH]c4ccc(Cl)cc34)[C@@](C(=O)OC)(c3cc4c(cc3OC)N(C)C3C(O)(C(=O)OC)[C@H](OC(C)=O)[C@]5(CC)C=CCN6CC[C@]43[C@@H]65)C2)C1` (stereo partly drawn) [Compound 18b, 10′-chlorovinblastine]: the IC50 was determined as 6.2 nM in the test with L1210 (setting [1]), 7.6 nM in the test on HCT116 (setting [2]) and 720 nM in the test with HCT116/VM46 (setting [3]).
Consider `CCC1=C[C@@H]2CN(CCc3c([nH]c4ccccc34)[C@@](C#N)(c3cc4c(cc3OC)N(C)C3C(O)(C(=O)OC)[C@H](OC(C)=O)[C@]5(CC)C=CCN6CC[C@]43[C@@H]65)C2)C1` (stereo partly drawn) [Compound 6a], for which the IC50 in the test with L1210 (setting [12]) was 6500 nM; in the test with HCT116 (setting [13]), 6100 nM; in the test on HCT116/VM46 (setting [14]), 6800 nM.
`CC[C@]1(O)C[C@@H]2CN(CCc3c([nH]c4ccc(Br)cc34)[C@@](C(=O)OC)(c3cc4c(cc3OC)N(C)C3C(O)(C(=O)OC)[C@H](OC(C)=O)[C@]5(CC)C=CCN6CC[C@]43[C@@H]65)C2)C1` (stereo partly drawn) [Compound 17b, 10′-bromo-vinblastine]: the figures for the IC50 in the test with L1210 (setting [1]), in the test with HCT116 (setting [2]) and with HCT116/VM46 (setting [3]) were 8 nM, 8.6 nM and 270 nM, respectively.
With `CCC1=C[C@@H]2CN(CCc3c([nH]c4ccccc34)[C@@](C(=O)OC)(c3cc4c(cc3OC)N(C)[C@H]3[C@@](O)(C(=O)OC)[C@H](OC(C)=O)[C@]5(CC)C=CCN6CC[C@]43[C@@H]65)C2)C1` [Compound 4a, anhydrovinblastine, reference compound], the IC50 in the test on L1210 (Table 1A, C16′-modified anhydrovinblastine analogues; read-out: IC50 (nM) L1210) was 65 nM; in the test on L1210 (Table 2A, C10′-substituted anhydrovinblastines, single evaluations; read-out: IC50 (nM) L1210), 65 nM; in the test on HCT116 (Table 1A, C16′-modified anhydrovinblastine analogues; read-out: IC50 (nM) HCT116), 75 nM; in the test on HCT116 (Table 2A, C10′-substituted anhydrovinblastines, single evaluations; read-out: IC50 (nM) HCT116), 75 nM; in the test on HCT116/VM46 (Table 1A, C16′-modified anhydrovinblastine analogues; read-out: IC50 (nM) HCT116/VM46) it was 600 nM; with HCT116/VM46 (Table 2A, C10′-substituted anhydrovinblastines, single evaluations; read-out: IC50 (nM) HCT116/VM46) it was 600 nM.
With `CC[C@]1(O)C[C@H]2CN(CCc3c([nH]c4ccccc34)[C@@](C(=O)OC)(c3cc4c(cc3OC)N(C=O)[C@H]3[C@@](O)(C(=O)OC)[C@H](OC(C)=O)[C@]5(CC)C=CCN6CC[C@]43[C@@H]65)C2)C1` [Compound 2, Vincristine, reference compound], the IC50 came to 6 nM in the test on L1210 (setting [7]); 7 nM in the test on HCT116 (Table 2C, side-by-side, multiple examinations with several independent samples; read-out: IC50 (nM) HCT116); 700 nM with HCT116/VM46 (setting [8]).
In the case of `CCOC(=O)[C@]1(c2cc3c(cc2OC)N(C)C2C(O)(C(=O)OC)[C@H](OC(C)=O)[C@]4(CC)C=CCN5CC[C@]32[C@@H]54)C[C@H]2CN(CCc3c1[nH]c1ccccc31)C[C@](O)(CC)C2` (stereo partly drawn) [Compound 5b], the IC50 amounted to 60 nM in the test with L1210 (setting [4]), 70 nM in the test on HCT116 (setting [5]) and 830 nM in the test with HCT116/VM46 (setting [6]).
On to `CCC1=C[C@@H]2CN(CCc3c([nH]c4ccc(C)cc34)[C@@](C(=O)OC)(c3cc4c(cc3OC)N(C)C3C(O)(C(=O)OC)[C@H](OC(C)=O)[C@]5(CC)C=CCN6CC[C@]43[C@@H]65)C2)C1` (stereo partly drawn) [Compound 21a, 10′-methylanhydrovinblastine], for which the IC50 in the test with L1210 (setting [9]) worked out at 65 nM; in the test with HCT116 (setting [10]), 65 nM; in the test on HCT116/VM46 (setting [11]), 640 nM.
As for `CCC1=C[C@@H]2CN(CCc3c([nH]c4ccccc34)[C@@](C(N)=O)(c3cc4c(cc3OC)N(C)C3C(O)(C(=O)OC)[C@H](OC(C)=O)[C@]5(CC)C=CCN6CC[C@]43[C@@H]65)C2)C1` (stereo partly drawn) [Compound 7a], the IC50 in the test on L1210 (setting [12]), with HCT116 (setting [13]) and in the test on HCT116/VM46 (setting [14]) was more than 10000 nM throughout.
